For series [1], the system named is influenza virus (fowl plague virus, FPV). The following applies: mouse, in vivo, ip.
In series [2] the test system is influenza A virus strain fowl plague virus (FPV). Type of series: cell-based.
The test system is the same in series [3]. Type of series: cell-based. The source holds these as a separate data set.
Series [4] relates to influenza virus. The following applies: cited from earlier work.
Series [5] relates to influenza virus (fowl plague virus, FPV). Set-up: species or system C57 Bl/6 mice. The following applies: mouse, in vivo.

Structures are written as SMILES. Entries after “also recorded” stand apart in the source; their conditions may differ. Where two headings read alike, the source gives them in different places.

Take `CC(=O)Oc1ccccc1C(=O)O` [ASA, acetylsalicylic acid]: in series [1], the “animals that survived the infection” value is on record as “approx. 20%”, the “average survival time of the dead animals versus control group” value is recorded as “clearly longer” and the body weight entry is listed as “distinct reduction in body weight”. Besides, in series [2], the “antiviral effectivity in vitro” value is on record as “have not shown in vitro any antiviral effectivity” and the “inhibition of the virus multiplication” value amounted to 2 log steps. In series [3], the “inhibiting effect on virus multiplication” value was over 2 log steps and the “reduction of the virus titers by a factor” value was determined as 10. The “concentration from which inhibition of influenza virus infections in cell culture was observed” value in series [4] is 5 to 10 mM. Further, the “concentration from which inhibition of influenza virus infections in cell culture was observed” value in series [4] (conversion of the mM values) is 0.9 to 1.8 mg/mL. For the same molecule, in series [5], the “animals that survived the infection” value was “approx. 40%”; the “antiviral effect compared with lower concentrations” value is reported as “comparatively not stronger; also recorded: clearly less antivirally effective”; the “average survival time of the dead animals versus control group” value was “clearly longer”; the “influenza virus multiplication in the lung and in the total organism” value was “distinct inhibition”. Also, the “viruses in the lung” value in series [5] is “Smaller doses of ASA more clearly reduced the viruses in the lung than higher doses”.
In the case of `S=C(S)N1CCCC1` [PDTC, pyrrolidine dithiocarbamate], the “reduction of the virus titers” value in series [2] is recorded as “approx. 10 fold”.

The values above are taken from US8313751B2, “Compositions and methods for the prophylaxis or treatment of viral diseases” (priority 2003, dated 2012).
